Columns and labels:
[1] = system: patients with locally advanced pancreatic cancer; details: cited from earlier work
[2] = system: patients with metastatic adenocarcinoma of the pancreas; assay: MPACT phase 3 study: overall survival; format: in vivo, human; details: for median overall survival: intent-to-treat population; for Median OS 95% CI (months): intent-to-treat
Description: (§1) Patients who had not experienced disease progression were followed with regularly scheduled spiral CT/MRI scans every 8 weeks in both arms. Patients were followed for survival until death or study closure.
The 1:1 randomization was stratified by: (1) Karnofsky performance status (PS) (70-80 versus 90-100); (2) Region (Australia, North America, Eastern/Western Europe); (3) Presence of liver metastasis (Yes vs. No).
(§2) The primary efficacy endpoint was overall survival (OS). Secondary efficacy endpoints were progression-free survival (PFS) (measured by blinded, independent radiology assessments done at 8 weeks), objective tumor response according to Response Evaluation Criteria in Solid Tumors (RECIST v. 1.0) based on Spiral computed tomography (CT) scans/magnetic resonance imaging (MRI). Other endpoints included were progression-free survival and objective response rate (ORR) by investigator review, disease control rate (DCR), time to failure (TTF), and safety/tolerability by National Cancer Institute Common Terminology Criteria for Adverse Events v. 3.0 (NCI CTCAE).
(§3) The sample size was increased prior to the interim analysis to increase the power from 80% to 90% (842 patients, 608 events) to detect a hazard ratio (HR) of 0.769 (2-sided α:0.049). 1 interim survival analysis was planned for futility. The intent-to-treat (ITT) population was evaluated for efficacy, the treated population for safety. Treatment differences in overall survival and progression-free survival were tested using stratified log-rank; objective response rates were tested using the chi-squared test.

[3] = system: patients with metastatic adenocarcinoma of the pancreas; assay: MPACT phase 3 study: progression-free survival (independent radiological review, investigator review); format: in vivo, human; details: for Progression-free rate (%): independent radiological review
Description: (§4) The primary efficacy endpoint was overall survival (OS). […] 3.0 (NCI CTCAE).
(§5) 1 interim survival analysis was planned for futility.
(§6) Study endpoints were determined by analyzing the following criteria: (1) changes in serum CA 19-9 levels; (2) changes in plasma SPARC (secreted protein, acidic and rich in cysteine) levels; (3) time and duration of response (using RECIST v. 1.0); (4) disease control rate based on objective response or stable disease ≧16 weeks; (5) time to treatment failure; (6) progression-free survival and overall response rate by investigator; and (7) tumor response by PET scans using EORTC criteria and blinded radiology assessments. When assessing study endpoints, researchers examined correlations between objective tumor response as determined by CT and PET scans, molecular marker expression and efficacy, and objective tumor response as determined by PET, progression-free survival, CA 19-9 levels, SPARC levels and overall survival.

[4] = system: patients with metastatic adenocarcinoma of the pancreas; assay: MPACT phase 3 study: objective tumor response and disease control rate (RECIST v. 1.0); format: in vivo, human
Description: as §4, §5, §6

[5] = system: patients with metastatic adenocarcinoma of the pancreas; assay: MPACT phase 3 study: time to treatment failure; format: in vivo, human
Description: as §4, §6

[6] = system: patients with metastatic adenocarcinoma of the pancreas
Description: as §1, §2, §3

[7] = system: patients with metastatic adenocarcinoma of the pancreas; format: in vivo
Description: as §1

[8] = system: pancreatic cancer; details: in vivo; cited from earlier work
[9] = best response by blinded assessment
[10] = best response by blinded assessment / independent review
[11] = independent radiological review
[12] = treated population, N = 421 vs N = 402
[13] = number of patients (% of arm), N = 431 vs N = 430

O=c1[nH]cc(F)c(=O)[nH]1 [5-FU, 5-fluororuracil]
median overall survival [1]: 4.2 months
median time to disease progression [1]: 0.9 months

Nc1ccn([C@@H]2O[C@H](CO)[C@@H](O)C2(F)F)c(=O)n1 [Gemcitabine, gemcitabine]
Patients Died, % ([2]; ITT): (83%)
Median OS, sensitivity analysis ([2]; censor at time of 2nd line therapy): 6.8 Months
median overall survival [2]: 6.7 (6.01-7.23) months
median overall survival ([2]; listed as gemcitabine): 6.7 months
Median OS 95% CI (months) ([2]; subgroup Geographic Region: Eastern Europe): 5.9 (4.67, 7.46) months
Median OS 95% CI (months) ([2]; subgroup Geographic Region: North America): 6.8 (6.01, 7.52) months
Median OS 95% CI (months) ([2]; subgroup Geographic Region: Western Europe): 6.9 (5.09, —)^ months
Median OS 95% CI (months) ([2]; subgroup Pancreatic Cancer Primary Location: Head): 6.5 (5.55, 7.29) months
Median OS 95% CI (months) ([2]; subgroup Pancreatic Cancer Primary Location: Other): 6.9 (5.98, 7.52) months
% survival ([2]; time point 6 month): 55%
% survival ([2]; time point 9 month): 36%
% survival ([2]; time point 12 month (1-year survival rate)): 22%
% survival ([2]; time point 18 month): 9%
% survival ([2]; time point 24 month (2-year survival rate)): 4%
N/Events, PFS by independent radiological review ([3]; ITT): 430/265
Median Progression-Free Survival by independent radiological review ([3]; ITT population): 3.7 months
Progression-free rate (%) ([3]; at 6 month): 25%
Progression-free rate (%) ([3]; at 9 month): 14%
Progression-free rate (%) ([3]; at 12 month): 9%
Progression-free rate (%) ([3]; at 15 month): 9%
Median Progression-Free Survival by investigator review ([3]; in vivo): 3.5 months
N/Events, PFS by investigator review ([3]; in vivo): 430/348
Not evaluable, % [4, 9]: 39%
Progressive Disease, % [4, 9]: 26%
Stable Disease, % [4, 9]: 28%
Complete Response, % [4, 10]: 0%
Partial Response, % [4, 10]: 7%
ORR, blinded (independent radiological) assessment ([4]; confirmed complete or partial response, ITT): 7%
ORR, investigator assessment ([4]; in vivo): 8%
Stable Disease ≧16 weeks, % ([4]; independent review): 26%
DCR (disease control rate) by independent review ([4]; objective response or stable disease ≧16 weeks): 33%
Median TTF [5, 11]: 3.6 months
Patients with Treatment Failure, % [5, 11]: 94%
Patients Censored, % ([5]; time to treatment failure analysis): 6%
Febrile Neutropenia (any grade), % ([6]; human, in vivo): 1%
Grade ≧3 Anemia, % ([6]; human, in vivo): 12%
Grade ≧3 Diarrhea, % ([6]; human, in vivo): 2%
Grade ≧3 Fatigue, % ([6]; human, in vivo): 7%
Grade ≧3 Leukopenia, % ([6]; human, in vivo): 16%
Grade ≧3 Neuropathy, Time to Improvement by 1 grade, median ([6]; human, in vivo): 29 days
Grade ≧3 Neuropathy, Time to Onset, median ([6]; human, in vivo): 113 days
Grade ≧3 Neutropenia, % ([6]; human, in vivo): 27%
Grade ≧3 Peripheral neuropathy, % ([6]; human, in vivo): <1%
Grade ≧3 Thrombocytopenia, % ([6]; human, in vivo): 9%
Myelosuppression: ANC, NCI CTCAE Grade 3 ([6]; human, in vivo): 82 (21) n (%)
Myelosuppression: ANC, NCI CTCAE Grade 4 ([6]; human, in vivo): 21 (5) n (%)
Myelosuppression: Hemoglobin, NCI CTCAE Grade 3 ([6]; human, in vivo): 42 (11) n (%)
Myelosuppression: Hemoglobin, NCI CTCAE Grade 4 ([6]; human, in vivo): 6 (2) n (%)
Myelosuppression: Platelet Count, NCI CTCAE Grade 3 ([6]; human, in vivo): 28 (7) n (%)
Myelosuppression: Platelet Count, NCI CTCAE Grade 4 ([6]; human, in vivo): 8 (2) n (%)
Subjects with at least one AE with Action of Study Drug Permanently Discontinued ([6]; human, in vivo): 95 (24%) n (%)
Treatment Emergent AEs Resulting in Treatment Discontinuation: Blood & Lymphatic ([6]; human, in vivo): 16 (4%) n (%)
Treatment Emergent AEs Resulting in Treatment Discontinuation: Gastrointestinal disorders ([6]; human, in vivo): 22 (5%) n (%)
Treatment Emergent AEs Resulting in Treatment Discontinuation: General Disorders/Administration Site Condition ([6]; human, in vivo): 18 (4%) n (%)
Treatment Emergent AEs Resulting in Treatment Discontinuation: Infections and infestations ([6]; human, in vivo): 11 (3%) n (%)
Treatment Emergent AEs Resulting in Treatment Discontinuation: Nervous System ([6]; human, in vivo): 7 (2%) n (%)
Treatment Emergent AEs Resulting in Treatment Discontinuation: Respiratory, Thoracic and mediastinal disorders ([6]; human, in vivo): 15 (4%) n (%)
Treatment-Emergent Grade 3 or Higher AE: Abdominal pain ([6]; human, in vivo): 32 (8%)
Treatment-Emergent Grade 3 or Higher AE: Anemia ([6]; human, in vivo): 32 (8%)
Treatment-Emergent Grade 3 or Higher AE: Asthenia ([6]; human, in vivo): 17 (4%)
Treatment-Emergent Grade 3 or Higher AE: Dehydration ([6]; human, in vivo): 10 (2%)
Treatment-Emergent Grade 3 or Higher AE: Diarrhea ([6]; human, in vivo): 6 (1%)
Treatment-Emergent Grade 3 or Higher AE: Fatigue ([6]; human, in vivo): 37 (9%)
Treatment-Emergent Grade 3 or Higher AE: Leukopenia ([6]; human, in vivo): 15 (4%)
Treatment-Emergent Grade 3 or Higher AE: Nausea ([6]; human, in vivo): 14 (3%)
Treatment-Emergent Grade 3 or Higher AE: Neutropenia ([6]; human, in vivo): 85 (21%)
Treatment-Emergent Grade 3 or Higher AE: Peripheral neuropathy ([6]; human, in vivo): 3 (1%)
Treatment-Emergent Grade 3 or Higher AE: Pulmonary Embolism ([6]; human, in vivo): 26 (6%)
Treatment-Emergent Grade 3 or Higher AE: Thrombocytopenia ([6]; human, in vivo): 33 (8%)
Treatment-Emergent Grade 3 or Higher AE: Vomiting ([6]; human, in vivo): 15 (4%)
Pt with at least 1 AE leading to death, % ([6]; treated population): 4%
Subject with at Least 1 Treatment Related AE with Outcome of Death [6, 12]: 18 (4%) n (%)
Treatment Emergent AEs with Outcome of Death: Cardiac Disorders [6, 12]: 3 (1%) n (%)
Treatment Emergent AEs with Outcome of Death: Gastrointestinal disorders [6, 12]: 3 (1%) n (%)
Treatment Emergent AEs with Outcome of Death: General disorders and administration site conditions [6, 12]: 3 (1%) n (%)
Treatment Emergent AEs with Outcome of Death: Hepatobiliary disorders [6, 12]: 1 (<1%) n (%)
Treatment Emergent AEs with Outcome of Death: Infections and infestations [6, 12]: 3 (1%) n (%)
Treatment Emergent AEs with Outcome of Death: Neoplasm Progression [6, 12]: 2 (<1%) n (%)
Treatment Emergent AEs with Outcome of Death: Nervous system disorders [6, 12]: 2 (<1%) n (%)
Treatment Emergent AEs with Outcome of Death: Renal and urinary disorders [6, 12]: 1 (<1%) n (%)
Treatment Emergent AEs with Outcome of Death: Respiratory, thoracic and mediastinal disorders [6, 12]: 3 (1%) n (%)
Patients with ≧1 Dose Reduction, %: gemcitabine ([7]; gemcitabine component): 33%
Reason for Therapy Discontinuation: Adverse Events [7, 13]: 73 (17%)
Reason for Therapy Discontinuation: Adverse Events Related to Study Drug [7, 13]: 29 (7%)
Reason for Therapy Discontinuation: Progressive Disease [7, 13]: 245 (57%)
median overall survival [1]: 5.7 months
median time to disease progression [1]: 2.1 months
median overall survival [8]: 6.0 months
median progression free survival [8]: 3.5 months
